Experimental findings from patent US7910751B2, “Heterocyclidene acetamide derivative” (Mochida Pharmaceutical Co., Ltd., priority 2005, dated 2011) are described below.

The structures appear in SMILES notation.

The target in the test is T1, human TRPV1 (Homo sapiens, UniProt Q8NER1).
T1 construct: expressed in transfected cells; host or cells: CHO-K1
T1 sequence (Q8NER1 whole entry): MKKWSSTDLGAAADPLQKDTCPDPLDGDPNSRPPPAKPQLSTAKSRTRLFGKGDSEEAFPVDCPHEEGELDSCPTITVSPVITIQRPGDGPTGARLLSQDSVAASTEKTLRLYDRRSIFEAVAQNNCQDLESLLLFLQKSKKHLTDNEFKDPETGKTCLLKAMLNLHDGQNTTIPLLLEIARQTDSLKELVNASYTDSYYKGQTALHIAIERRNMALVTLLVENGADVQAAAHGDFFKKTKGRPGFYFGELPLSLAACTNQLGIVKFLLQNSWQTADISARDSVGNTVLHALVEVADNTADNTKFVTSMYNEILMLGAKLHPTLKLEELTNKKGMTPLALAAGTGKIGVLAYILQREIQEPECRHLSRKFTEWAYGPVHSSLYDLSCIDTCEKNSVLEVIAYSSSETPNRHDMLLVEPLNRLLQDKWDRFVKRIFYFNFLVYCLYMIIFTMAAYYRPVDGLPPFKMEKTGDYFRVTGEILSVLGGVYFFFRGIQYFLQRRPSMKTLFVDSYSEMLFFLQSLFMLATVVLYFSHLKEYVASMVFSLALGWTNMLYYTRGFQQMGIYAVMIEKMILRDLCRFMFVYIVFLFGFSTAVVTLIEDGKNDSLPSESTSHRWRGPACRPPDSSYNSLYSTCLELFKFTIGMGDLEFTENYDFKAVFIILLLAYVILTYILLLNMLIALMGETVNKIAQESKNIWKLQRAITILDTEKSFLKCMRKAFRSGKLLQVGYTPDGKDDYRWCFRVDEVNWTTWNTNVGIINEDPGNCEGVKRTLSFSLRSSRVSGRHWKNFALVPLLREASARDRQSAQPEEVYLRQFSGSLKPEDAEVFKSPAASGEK
Briefly: Measurement of capsaicin-induced Ca influx in human TRPV1 transformed CHO cell line using FDSS-6000. The test is classed as cell-based. The settings on record: concentration at which the capsaicin concentration-reaction curve is shifted two times to the right, human TRPV1 transformed CHO cells.
With `COc1cccc(NC(=O)/C=C2\CCCOc3cc(C(F)(F)F)ccc32)c1` [Example 16, (E)-2-(8-trifluoromethyl-3,4-dihydrobenzo[b]oxepin-5(2H)-ylidene)-N-(3-methoxyphenyl)acetamide], the “A2 VALUE” was “A (compounds of the present invention having an A2 value of less than 100 nM are represented by A)”.
Consider `O=C(/C=C1\CCCOc2cc(C(F)(F)F)ccc21)Nc1cccc2c1CC(O)C(O)C2` (stereo not drawn) [Example 66, (E)-2-(8-trifluoromethyl-3,4-dihydrobenzo[b]oxepin-5-(2H)-ylidene)-N-(cis-6,7-dihydroxy-5,6,7,8-tetrahydronaphthalen-1-yl)acetamide], for which the “A2 VALUE” is “A (compounds of the present invention having an A2 value of less than 100 nM are represented by A)”.
With `CC1(C)N/C(=C\C(=O)Nc2cccc3c2CC(O)CC3)c2ccc(C(F)(F)F)cc2O1` (centres unmarked) [Example 240, (Z)-2-(6-trifluoromethyl-3,3-dimethyl-4-oxa-3,4-dihydro-(2H)-isoquinolin-1-ylidene)-N-(7-hydroxy-5,6,7,8-tetrahydronaphthalen-1-yl)acetamide] the entry was “A (compounds of the present invention having an A2 value of less than 100 nM are represented by A)”; with `O=C(/C=C1\CCCOc2cc(C(F)(F)F)ccc21)Nc1ccc(Cc2ccncc2)cc1` [Example 29, (E)-2-(8-trifluoromethyl-3,4-dihydrobenzo[b]oxepin-5(2H)-ylidene)-N-(4-((pyridin-4-yl)methyl)phenyl)acetamide], “B (compounds having an A2 value of 100 nM or more are represented by B)”; with `O=C(/C=C1\CCN(c2ncc(CO)cc2Cl)c2cc(C(F)(F)F)ccc21)Nc1cccc2c1CC(O)CC2` (centres unmarked) [Example 200, (E)-2-(1-(3-chloro-5-hydroxymethyl-pyridin-2-yl)-7-trifluoromethyl-2,3-dihydroquinolin-4(1H)-ylidene)-N-(7-hydroxy-5,6,7,8-tetrahydronaphthalen-1-yl)acetamide], “A (compounds of the present invention having an A2 value of less than 100 nM are represented by A)”.
Take `O=C(/C=C1\CCCOc2cc(C(F)(F)F)ccc21)Nc1ccc2c(c1)OCCO2` [Example 9, (E)-2-(8-trifluoromethyl-3,4-dihydrobenzo[b]oxepin-5(2H)-ylidene)-N-(2,3-dihydrobenzo[b][1,4]dioxin-6-yl)acetamide]: the “A2 VALUE” is recorded as “A (compounds of the present invention having an A2 value of less than 100 nM are represented by A)”.
Take `CC(C)CC(=O)N1CC/C(=C\C(=O)Nc2ccc3cccnc3c2)c2ccc(C(F)(F)F)cc21` [Example 77, (E)-2-(1-(3-methylbutanoyl)-7-trifluoromethyl-2,3-dihydroquinolin-4(1H)-ylidene)-N-(quinolin-7-yl)acetamide]: the “A2 VALUE” was “A (compounds of the present invention having an A2 value of less than 100 nM are represented by A)”.
With `O=C(/C=C1\CCCOc2cc(C(F)(F)F)ccc21)Nc1ccc2c(c1)C(CO)CCC2` (centres unmarked) [Example 179, (E)-2-(8-trifluoromethyl-3,4-dihydrobenzo[b]oxepin-5(2H)-ylidene)-N-(8-hydroxymethyl-5,6,7,8-tetrahydronaphthalen-2-yl)acetamide] the entry was “A (compounds of the present invention having an A2 value of less than 100 nM are represented by A)”; with `O=C1CCc2cccc(NC(=O)/C=C3\CCCOc4cc(C(F)(F)F)ccc43)c2C1` [Example 61, (E)-2-(8-trifluoromethyl-3,4-dihydrobenzo[b]oxepin-5(2H)-ylidene)-N-(7-oxo-5,6,7,8-tetrahydronaphthalen-1-yl)acetamide], “A (compounds of the present invention having an A2 value of less than 100 nM are represented by A)”.
Consider `CC1(C(=O)N2CC/C(=C\C(=O)Nc3cccc4c3CC(O)CC4)c3ccc(C(F)(F)F)cc32)CCC1` (centres unmarked) [Example 90, (E)-2-(1-(1-methylcyclobutanecarbonyl)-7-trifluoromethyl-2,3-dihydroquinolin-4(1H)-ylidene)-N-(7-hydroxy-5,6,7,8-tetrahydronaphthalen-1-yl)acetamide], for which the “A2 VALUE” is on record as “A (compounds of the present invention having an A2 value of less than 100 nM are represented by A)”.
With `O=C(/C=C1\CCCOc2cc(C(F)(F)F)ccc21)Nc1ccc2c(c1)N(C(=O)CO)CCO2` [Example 231] the entry was “B (compounds having an A2 value of 100 nM or more are represented by B)”.
With `O=C(/C=C1\CCOc2cc(C(F)(F)F)ccc21)NC1CCc2cccnc2C1` (centres unmarked) [Example 6, (E)-2-(7-trifluoromethyl-chroman-4-ylidene)-N-(5,6,7,8-tetrahydroquinolin-7-yl)acetamide] the entry was “A (compounds of the present invention having an A2 value of less than 100 nM are represented by A)”; with `O=C(/C=C1\CCCOc2cc(C(F)(F)F)ccc21)Nc1cccc2c1CC(O)CC2` (centres unmarked) [Example 63, (E)-2-(8-trifluoromethyl-3,4-dihydrobenzo[b]oxepin-5-(2H)-ylidene)-N-(7-hydroxy-5,6,7,8-tetrahydronaphthalen-1-yl)acetamide], “A (compounds of the present invention having an A2 value of less than 100 nM are represented by A)”; with `O=C(/C=C1\CCCNc2cc(C(F)(F)F)ccc21)Nc1ccc2cccnc2c1` [Example 191, (E)-2-(8-trifluoromethyl-1,2,3,4-tetrahydro-5H-benzo[b]azepin-5-ylidene)-N-(quinolin-7-yl)acetamide], “A (compounds of the present invention having an A2 value of less than 100 nM are represented by A)”.
On to `O=C(/C=C1\CCCOc2cc(C(F)(F)F)ccc21)Nc1ccc2c(c1)OC(CO)CO2` (centres unmarked) [Example 165, (E)-2-(8-trifluoromethyl-3,4-dihydrobenzo[b]oxepin-5(2H)-ylidene)-N-(3-hydroxymethyl-2,3-dihydro-1,4-benzodioxin-6-yl)acetamide], for which the “A2 VALUE” is “A (compounds of the present invention having an A2 value of less than 100 nM are represented by A)”.
As for `O=C(/C=C1\CCCOc2cc(C(F)(F)F)ccc21)Nc1ccc2[nH]ccc2c1` [Example 138, (E)-2-(8-trifluoromethyl-3,4-dihydrobenzo[b]oxepin-5(2H)-ylidene)-N-(indol-5-yl)acetamide], the “A2 VALUE” is “A (compounds of the present invention having an A2 value of less than 100 nM are represented by A)”.
With `O=C(/C=C1\CCN(C(=O)c2cccnc2)c2cc(C(F)(F)F)ccc21)Nc1ccc2cccnc2c1` [Example 55, (E)-2-(7-trifluoromethyl-2,3-dihydro-1-nicotinoylquinolin-4(1H)-ylidene)-N-(quinolin-7-yl)acetamide] the entry was “A (compounds of the present invention having an A2 value of less than 100 nM are represented by A)”; with `CCCCC(=O)N1CC/C(=C\C(=O)Nc2cccc3c2CC(O)CN3)c2ccc(C(F)(F)F)cc21` (centres unmarked) [Example 108, (E)-2-(7-trifluoromethyl-2,3-dihydro-1-pentanoylquinolin-4(1H)-ylidene)-N-(3-hydroxy-1,2,3,4-tetrahydroquinolin-5-yl)acetamide], “A (compounds of the present invention having an A2 value of less than 100 nM are represented by A)”; with `CC(C)(C)CC(=O)N1CC/C(=C\C(=O)Nc2ccc3cccnc3c2)c2ccc(C(F)(F)F)cc21` [Example 76, (E)-2-(1-(3,3-dimethylbutanoyl)-7-trifluoromethyl-2,3-dihydroquinolin-4(1H)-ylidene)-N-(quinolin-7-yl)acetamide], “A (compounds of the present invention having an A2 value of less than 100 nM are represented by A)”.
Regarding `O=C(/C=C1\CCOc2cc(C(F)(F)F)c(F)cc21)Nc1cccc2c1CC(O)CC2` (centres unmarked) [Example 214, (E)-2-(6-fluoro-7-trifluoromethyl-chroman-4-ylidene)-N-(7-hydroxy-5,6,7,8-tetrahydronaphthalen-1-yl)acetamide], the “A2 VALUE” is recorded as “A (compounds of the present invention having an A2 value of less than 100 nM are represented by A)”.
With `COCCC(=O)N1CC/C(=C\C(=O)Nc2ccc3cccnc3c2)c2ccc(C(F)(F)F)cc21` [Example 100, (E)-2-(7-trifluoromethyl-2,3-dihydro-1-(3-methoxypropanoyl)quinolin-4(1H)-ylidene)-N-(quinolin-7-yl)acetamide] the entry was “A (compounds of the present invention having an A2 value of less than 100 nM are represented by A)”; with `CN1CCC/C(=C\C(=O)Nc2ccc3cccnc3c2)c2ccc(C(F)(F)F)cc21` [Example 196, (E)-2-(1-methyl-8-trifluoromethyl-1,2,3,4-tetrahydro-5H-benzo[b]azepin-5-ylidene)-N-(quinolin-7-yl)acetamide], “A (compounds of the present invention having an A2 value of less than 100 nM are represented by A)”; with `O=C(/C=C1\CCCOc2cc(C(F)(F)F)ccc21)Nc1ccc(Cl)c(C(F)(F)F)c1` [Example 136, (E)-2-(8-trifluoromethyl-3,4-dihydrobenzo[b]oxepin-5(2H)-ylidene)-N-(4-chloro-3-(trifluoromethyl)phenyl)acetamide], “A (compounds of the present invention having an A2 value of less than 100 nM are represented by A)”.
As for `COC(=O)CCC(=O)N1CC/C(=C\C(=O)Nc2ccc3cccnc3c2)c2ccc(C(F)(F)F)cc21` [Example 101, (E)-2-(7-trifluoromethyl-2,3-dihydro-1-(3-(carbomethoxy)propanoyl)quinolin-4(1H)-ylidene)-N-(quinolin-7-yl)acetamide], the “A2 VALUE” is reported as “A (compounds of the present invention having an A2 value of less than 100 nM are represented by A)”.
Take `CC(C)(C)c1ccc2c(c1)OCC/C2=C\C(=O)Nc1cccc2cnccc12` [Example 4, (E)-2-(7-tert-butyl-chroman-4-ylidene)-N-(isoquinolin-5-yl)acetamide]: the “A2 VALUE” is “A (compounds of the present invention having an A2 value of less than 100 nM are represented by A)”.
In the case of `O=C(/C=C1\CCCOc2cc(C(F)(F)F)ccc21)NCc1ccc(-c2csnn2)cc1` [Example 37, (E)-2-(8-trifluoromethyl-3,4-dihydrobenzo[b]oxepin-5(2H)-ylidene)-N-(4-(1,2,3-thiadiazolo-4-yl)phenylmethyl)acetamide], the “A2 VALUE” was “B (compounds having an A2 value of 100 nM or more are represented by B)”.
